Usually Ki stands for a dissociation constant, usually derived from enzyme kinetics or from competition with a known ligand.

Experiment [1] relates to Serratia marcescens QM B1466 chitinases (total chitinase activity, EC 3.2.1.14) in culture supernatant. Description: Chitinase activity assay with pNP-(NAG)2 in the presence of increasing N-acetyl-D-glucosamine (end-product inhibition). Type of experiment: biochemical. To be noted: 40-mM NAG in the assay media, p-nitrophenyl substrate analog, 10 min. Here is the method: (§1) FIG. 15a illustrates assays of chitinase (.box-solid.) and chitobiase (.diamond-solid.) in the presence of increasing amounts of N-acetyl-D-glucosamine (NAG). The activity values are expressed as percentage of the initial uninhibited values ([NAG]=0).
Chitinase activity was also determined by using the analog p-nitrophenyl-β-D-N,N'-diacetylchitobiose (pNP-(NAG)2) (Sigma). The assay was performed in triplicate using ELISA plates and contained 50 μL of 100 mM KH2 PO4 buffer containing 1-mM CaCl2 at pH 6.0, 50 μL of pNP(NAG)2 dissolved in nanopure water (400 μg/ml) and 20 μL of enzyme diluted in the same buffer. After 10 minutes of incubation samples were read at 405 nm using an ELISA plate reader. Blanks were used to discount any absorption due to the enzyme or pNP-(NAG)2 alone. The μmoles of p-nitrophenol released by the samples was calculated using a standard curve. Units of enzymatic activity were determined as the number of μmoles of p-nitrophenol released per minute under the assay conditions.
End-product inhibition was tested using p-nitrophenyl substrate-analogs to assay chitinase and chitobiase activities in the presence of increasing concentrations of N-acetyl-D-glucosamine (NAG). The results shown in FIG. 15a indicate that both activities in culture supernatant are inhibited by the end product (NAG). […]

The target in experiment [2] is T1, Serratia marcescens QM B1466 chitobiase (EC 3.2.1.29) in culture supernatant (Serratia marcescens, UniProt Q54468).
T1 construct: assaying chitobiase activity in S. marcescens culture supernatant over a wide range of substrate concentrations; endogenous in cells; host or cells: Serratia marcescens QM B1466, grown on chitin; enzyme in culture supernatant, not purified
T1 sequence (Q54468 28-885): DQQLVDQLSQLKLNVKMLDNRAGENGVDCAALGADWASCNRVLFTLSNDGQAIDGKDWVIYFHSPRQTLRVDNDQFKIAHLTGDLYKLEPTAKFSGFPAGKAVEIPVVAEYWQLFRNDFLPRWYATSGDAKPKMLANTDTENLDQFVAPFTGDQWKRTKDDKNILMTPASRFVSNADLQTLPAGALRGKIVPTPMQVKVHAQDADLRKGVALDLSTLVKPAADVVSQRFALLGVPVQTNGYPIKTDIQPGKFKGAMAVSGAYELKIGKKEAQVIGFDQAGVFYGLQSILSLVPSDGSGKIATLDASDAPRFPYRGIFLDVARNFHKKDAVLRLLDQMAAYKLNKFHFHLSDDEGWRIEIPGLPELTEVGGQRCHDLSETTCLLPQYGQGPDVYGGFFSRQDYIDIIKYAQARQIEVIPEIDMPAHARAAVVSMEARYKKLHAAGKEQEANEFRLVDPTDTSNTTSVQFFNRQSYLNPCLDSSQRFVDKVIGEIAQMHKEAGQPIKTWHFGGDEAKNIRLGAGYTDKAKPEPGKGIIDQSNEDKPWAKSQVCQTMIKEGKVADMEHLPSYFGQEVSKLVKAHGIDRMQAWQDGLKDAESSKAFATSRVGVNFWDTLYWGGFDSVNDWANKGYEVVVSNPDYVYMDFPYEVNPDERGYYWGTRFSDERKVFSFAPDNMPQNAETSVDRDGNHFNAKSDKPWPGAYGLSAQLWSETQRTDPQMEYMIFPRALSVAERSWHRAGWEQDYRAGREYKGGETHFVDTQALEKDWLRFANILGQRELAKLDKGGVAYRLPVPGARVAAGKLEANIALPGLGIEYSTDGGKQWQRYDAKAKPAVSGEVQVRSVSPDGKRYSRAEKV
Nature of the experiment: Chitobiase activity assay with pNP-NAG in the presence of N-acetyl-D-glucosamine (end-product inhibition, Eadie-Hofstee analysis). Type of experiment: biochemical.
From the text: as §1
FIG. 15b illustrates assays of chitobiase from S. marcescens crude extracts using a range of p-nitrophenyl N-acetyl-β-D-glucosaminide concentrations with or without the addition of a fixed amount of N-acetyl-D-glucosamine (NAG). (.box-solid.) 0.00 mM NAG; (.circle-solid.) 0.21 mM NAG; (Δ) 0.42 mM NAG; (.gradient.) 0.83 mM NAG; and (.diamond-solid.) 1.67 mM NAG.
Chitobiase activity was determined by measuring the amount of p-nitrophenolreleased when an aliquot of enzyme solution (culture supernatant) was incubated with an aqueous solution of p-nitrophenyl-N-acetyl-β-D-glucosamine (pNP-NAG) (Sigma). The buffer used in this assay was 85-mM Tris(hydroxymethylaminomethane)-malate, pH 7.0. […] The liberated p-nitrophenol was spectrophotometrically measured at 405 nm in an ELISA plate reader. […]
The nature of chitobiase inhibition by N-acetyl-D-glucosamine was determined by assaying chitobiase activity in S. marcescens culture supernatant over a wide range of substrate concentrations, with and without the addition of fixed amounts of N-acetyl-D-glucosamine. […]

Turning to `CC(=O)N[C@H]1C(O)O[C@H](CO)[C@@H](O)[C@@H]1O` (stereo partly drawn) [N-acetyl-D-glucosamine, 2-acetamido-2-deoxy-D-glucose], the “total chitinase activity lost” value in experiment [1] is on record as 30%. The inhibition at 40000 µM in experiment [2] (10 min, pH 7, 40-mM NAG in the assay media, p-nitrophenyl substrate analog, culture supernatant, read-out: chitobiase activity drop) was determined as 70%. For the same compound, the Ki in experiment [2] (noncompetitive inhibition, substrate p-nitrophenyl N-acetyl-β-D-glucosaminide, 0-1.67 mM NAG, calculated from Eadie-Hofstee analysis, read-out: inhibition constant Ki) was 1 mM.

Values taken from US5998173A, “Process for producing N-acetyl-D-glucosamine” (The University of Bristish Columbia, priority 1996, dated 1999).
